Legend:
Nav1.5 = Nav1.5 (Homo sapiens (Human), UniProt Q14524); assay: Voltage-clamp, Nav1.5 in HEK-293 cells; format: cell-based
Protocol: (§1) All experiments were conducted at room temperature (22-24° C.) with an EPC-10 amplifier and Pulse software (HEKA, Lambrecht/Pfalz, Germany) in the whole-cell mode of the patch-clamp technique. Human embryonic kidney (HEK)-293 cell lines stably expressing hNav1.1, hNav1.5, hNav1.7 channels (generously provided by Dr. Christopher Lossin, University of California Davis), hNav1.4 (Frank Lehmann-Horn, University of Ulm), or hKv2.1 channels (James Trimmer, University of California Davis) were bathed in extracellular solution containing (in mM): 160 NaCl; 4.5 KCl; 1 MgCl2; 2 CaCl2; 10 HEPES [pH was adjusted to 7.4 using NaOH (310 mOsm)]. Pipettes were filled with intracellular solution containing (in mM): 145 KF; 2 MgCl2; 10 ethylene glycol tetraacetic acid; 10 HEPES (pH adjusted to 7.2 with KOH; 300 mOsm). Neuroblastoma N1E-115 cells (ATCC, Manassa, Va., USA) expressing Nav1.2 were patched with a CsF internal solution consisting of (in mM): 10 NaF; 110 CsF; 20 CsCl; 2 ethylene glycol tetraacetic acid; 10 HEPES (CsOH to pH 7.35; 300 mOsm). All pipette tip resistances were 2-4 MΩ. Series resistances of 3-10 MΩ were compensated 40-80%. All cells were voltage-clamped to a holding potential of −90 mV unless otherwise specified. The sampling frequency was 5 kHz. Na^+ currents were elicited by 30-ms pulse to 0 mV from −90 mV applied every 10 s. […]

KCa2.3 (SK3) = KCa2.3 (SK3) (Homo sapiens (Human), UniProt Q9UGI6); assay: Whole-cell patch-clamp, KCa2.3; format: cell-based; details: 250 nM free intracellular Ca2+; read-out: EC50 or IC50, KCa2.3
Protocol: (§2) HEK-293 or COS-7 cells stably expressing hKCa2.1, rKCa2.2, and hKCa2.3 have been described previously (Sankaranarayanan et al., 2009). Cells were held at −80 mV and KCa currents elicited by dialysis with a K^+ aspartate based internal containing 250 nM free Ca^2+ (pH 7.2, 290 mOsm, pipette resistance 1.5 MΩ). To reduce currents from native chloride channels, Na^+ aspartate Ringer was used as an external solution. KCa2 currents were recorded with 200-ms voltage ramps from −120 to +40 mV applied every 10 s, and the fold increase of slope conductance at −80 mV by drug was taken as a measure of channel activation. Data analysis, fitting, and plotting were performed with IGOR-Pro (Wavemetrics, Lake Oswego, Oreg., USA) and Origin 9.0 (OriginLab, Northampton, Mass., USA).

MES-induced seizures = assay: MES seizure test, CF-1 mice, compounds given i.p. as solution; format: in vivo
Protocol: MES assays were performed at the Department of Neurology at the University of California with CF-1 mice. This study was approved by the University of California, Davis, Animal Use and Care Committee and conducted in accordance with the guidelines of Animal Use and Care of the National Institutes of Health and the University of California. For these assays, stock solutions of SKA-19 (5 mg/ml) were prepared in 5% CremophorEL (Sigma-Aldrich, St. Louis, Mo., USA) and 95% saline, diluted further with saline, and SKA-19 was administered i.p. in a volume of 10 ml/kg body weight. Animals were subjected to a 0.2-s, 60-Hz electrical stimulus through corneal electrodes (5 mm diameter stainless steel balls). The electroshock unit was adjusted to deliver a constant current of 50 mA. Immediately before stimulation, the corneal electrodes were wetted with saline to provide good electrical contact. Animals failing to show tonic hindlimb extension were scored as protected (Kokate et al., 1994).
The mouse maximal electroshock (MES) and 6 Hz seizure models were used. Motor toxicity was assessed using a modification of the horizontal screen test. ED50 values in the seizure models and TD50 values in the toxicity test were determined by nonlinear fitting of dose-response curves. […] Drugs solutions were injected intraperitoneally 10 min prior to administration of the electrical stimulus in a volume of 10 ml/kg body weight.

Nav1.7 = Nav1.7 (Homo sapiens (Human), UniProt Q15858); assay: Voltage-clamp, Nav1.7 in HEK-293 cells; format: cell-based
Protocol: as §1

KCa2.1 = KCa2.1 (Homo sapiens (Human), UniProt Q92952); assay: Whole-cell patch-clamp, KCa2.1; format: cell-based
Protocol: as §2

[1] = system: lamotrigine resistant amygdala kindled rats; assay: Lamotrigine resistant amygdala kindled rats; format: in vivo

Sequence of Nav1.5 (Q14524 whole entry): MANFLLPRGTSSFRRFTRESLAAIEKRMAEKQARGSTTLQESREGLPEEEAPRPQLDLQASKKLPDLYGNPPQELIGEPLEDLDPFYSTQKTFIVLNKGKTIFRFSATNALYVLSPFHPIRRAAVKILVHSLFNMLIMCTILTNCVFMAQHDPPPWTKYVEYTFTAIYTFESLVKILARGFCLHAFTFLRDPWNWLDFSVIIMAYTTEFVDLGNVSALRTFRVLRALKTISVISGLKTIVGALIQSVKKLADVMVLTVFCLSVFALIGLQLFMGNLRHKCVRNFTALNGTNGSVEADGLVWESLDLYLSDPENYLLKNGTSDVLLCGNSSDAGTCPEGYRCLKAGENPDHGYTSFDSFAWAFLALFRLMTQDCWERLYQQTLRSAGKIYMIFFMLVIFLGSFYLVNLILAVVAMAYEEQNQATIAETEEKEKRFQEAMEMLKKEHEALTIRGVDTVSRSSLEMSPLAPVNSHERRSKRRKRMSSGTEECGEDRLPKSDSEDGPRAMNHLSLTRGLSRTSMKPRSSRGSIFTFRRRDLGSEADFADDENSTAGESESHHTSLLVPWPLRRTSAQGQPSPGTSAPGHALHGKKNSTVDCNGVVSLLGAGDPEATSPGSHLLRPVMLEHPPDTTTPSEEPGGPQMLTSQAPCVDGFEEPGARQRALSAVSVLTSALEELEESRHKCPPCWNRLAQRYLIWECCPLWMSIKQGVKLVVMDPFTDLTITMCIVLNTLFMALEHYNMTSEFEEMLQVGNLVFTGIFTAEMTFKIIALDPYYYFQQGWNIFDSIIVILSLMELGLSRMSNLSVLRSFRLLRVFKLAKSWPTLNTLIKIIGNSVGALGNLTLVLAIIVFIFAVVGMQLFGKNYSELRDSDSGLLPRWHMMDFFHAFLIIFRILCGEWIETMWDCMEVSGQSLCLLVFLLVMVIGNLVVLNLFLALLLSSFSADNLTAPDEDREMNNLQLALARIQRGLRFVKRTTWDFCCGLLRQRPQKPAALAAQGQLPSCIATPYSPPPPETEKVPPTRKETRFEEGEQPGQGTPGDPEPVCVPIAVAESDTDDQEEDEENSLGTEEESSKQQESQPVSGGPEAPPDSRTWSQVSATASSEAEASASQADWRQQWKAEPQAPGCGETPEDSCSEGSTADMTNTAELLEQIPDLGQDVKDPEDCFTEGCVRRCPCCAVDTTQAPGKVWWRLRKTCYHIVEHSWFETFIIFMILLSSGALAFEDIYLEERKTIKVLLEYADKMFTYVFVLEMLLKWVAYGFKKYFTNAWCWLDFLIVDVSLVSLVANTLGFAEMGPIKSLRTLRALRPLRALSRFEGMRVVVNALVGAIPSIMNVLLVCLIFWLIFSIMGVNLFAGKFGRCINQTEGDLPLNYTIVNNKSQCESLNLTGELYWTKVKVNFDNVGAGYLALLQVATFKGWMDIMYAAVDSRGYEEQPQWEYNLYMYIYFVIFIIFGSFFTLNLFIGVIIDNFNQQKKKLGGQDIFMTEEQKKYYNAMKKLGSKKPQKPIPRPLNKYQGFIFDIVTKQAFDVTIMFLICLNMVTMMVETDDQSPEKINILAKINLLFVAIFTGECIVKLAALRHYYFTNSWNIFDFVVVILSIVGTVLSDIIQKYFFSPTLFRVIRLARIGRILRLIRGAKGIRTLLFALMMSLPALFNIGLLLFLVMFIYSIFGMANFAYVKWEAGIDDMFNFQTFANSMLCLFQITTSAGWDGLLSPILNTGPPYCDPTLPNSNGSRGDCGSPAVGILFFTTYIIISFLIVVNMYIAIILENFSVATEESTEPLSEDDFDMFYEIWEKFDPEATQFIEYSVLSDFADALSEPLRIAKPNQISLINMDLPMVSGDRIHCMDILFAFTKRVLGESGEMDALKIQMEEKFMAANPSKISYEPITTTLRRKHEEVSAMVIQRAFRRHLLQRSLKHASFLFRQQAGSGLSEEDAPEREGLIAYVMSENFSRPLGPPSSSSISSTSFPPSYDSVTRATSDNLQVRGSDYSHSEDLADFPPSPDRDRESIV
Sequence of Nav1.7 (Q15858 whole entry): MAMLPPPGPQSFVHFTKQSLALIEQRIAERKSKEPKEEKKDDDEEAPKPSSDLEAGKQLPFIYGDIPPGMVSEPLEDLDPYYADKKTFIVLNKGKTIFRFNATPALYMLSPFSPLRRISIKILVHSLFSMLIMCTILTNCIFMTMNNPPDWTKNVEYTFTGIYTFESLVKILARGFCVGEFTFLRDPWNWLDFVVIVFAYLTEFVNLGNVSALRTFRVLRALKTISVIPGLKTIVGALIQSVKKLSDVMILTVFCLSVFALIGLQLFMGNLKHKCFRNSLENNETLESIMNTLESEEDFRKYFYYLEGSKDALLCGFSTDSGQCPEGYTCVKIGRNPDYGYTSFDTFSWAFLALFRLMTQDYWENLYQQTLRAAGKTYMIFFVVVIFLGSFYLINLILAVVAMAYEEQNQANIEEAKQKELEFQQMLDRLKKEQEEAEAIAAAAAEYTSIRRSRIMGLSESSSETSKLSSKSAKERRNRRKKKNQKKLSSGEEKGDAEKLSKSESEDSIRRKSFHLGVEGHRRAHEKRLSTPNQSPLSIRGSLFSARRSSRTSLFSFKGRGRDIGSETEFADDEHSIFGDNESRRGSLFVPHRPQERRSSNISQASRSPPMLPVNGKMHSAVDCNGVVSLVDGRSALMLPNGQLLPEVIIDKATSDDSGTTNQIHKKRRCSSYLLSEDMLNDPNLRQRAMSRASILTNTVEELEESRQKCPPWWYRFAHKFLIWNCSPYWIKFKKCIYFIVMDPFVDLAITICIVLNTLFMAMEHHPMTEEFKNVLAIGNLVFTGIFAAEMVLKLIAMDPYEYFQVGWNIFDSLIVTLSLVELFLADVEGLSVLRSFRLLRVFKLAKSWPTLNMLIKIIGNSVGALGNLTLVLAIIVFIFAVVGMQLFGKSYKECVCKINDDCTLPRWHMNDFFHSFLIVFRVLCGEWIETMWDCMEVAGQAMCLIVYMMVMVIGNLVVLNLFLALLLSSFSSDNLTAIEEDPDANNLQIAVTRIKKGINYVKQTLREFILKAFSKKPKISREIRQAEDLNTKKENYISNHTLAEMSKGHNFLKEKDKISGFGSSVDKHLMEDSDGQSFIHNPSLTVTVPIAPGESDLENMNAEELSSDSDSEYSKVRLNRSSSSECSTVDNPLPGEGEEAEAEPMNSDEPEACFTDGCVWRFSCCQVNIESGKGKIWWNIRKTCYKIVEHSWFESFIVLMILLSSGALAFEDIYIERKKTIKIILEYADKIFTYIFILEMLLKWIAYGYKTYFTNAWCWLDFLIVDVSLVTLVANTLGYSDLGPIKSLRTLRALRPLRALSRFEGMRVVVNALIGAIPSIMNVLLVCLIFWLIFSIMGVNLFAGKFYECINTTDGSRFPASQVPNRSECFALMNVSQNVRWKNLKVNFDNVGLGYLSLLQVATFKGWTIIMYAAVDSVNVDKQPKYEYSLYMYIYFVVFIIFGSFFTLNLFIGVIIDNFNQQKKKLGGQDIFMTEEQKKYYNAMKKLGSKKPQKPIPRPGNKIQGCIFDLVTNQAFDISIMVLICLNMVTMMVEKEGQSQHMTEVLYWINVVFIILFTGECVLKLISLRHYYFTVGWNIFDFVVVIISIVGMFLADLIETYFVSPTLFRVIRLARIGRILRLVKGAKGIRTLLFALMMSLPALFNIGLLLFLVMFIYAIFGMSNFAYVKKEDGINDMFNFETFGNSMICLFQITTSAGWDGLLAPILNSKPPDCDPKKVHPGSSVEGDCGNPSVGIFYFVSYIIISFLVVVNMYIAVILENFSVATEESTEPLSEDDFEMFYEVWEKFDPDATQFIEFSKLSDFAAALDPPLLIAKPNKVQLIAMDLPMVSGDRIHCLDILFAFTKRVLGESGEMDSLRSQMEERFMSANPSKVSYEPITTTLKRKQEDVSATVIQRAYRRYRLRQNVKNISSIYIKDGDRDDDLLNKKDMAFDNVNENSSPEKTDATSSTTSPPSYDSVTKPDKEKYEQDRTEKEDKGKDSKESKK

Nc1nc2ccc(SC(F)(F)F)cc2s1 [SKA-19, 6-((trifluoromethyl)thio)benzo[d]thiazol-2-amine]
block of Nav1.5 (Nav1.5): low micromolar range
IC50 (Nav1.5; read-out: EC50 or IC50, Nav1.5): 5.8 ± 2.6 µM
EC50 (KCa2.3 (SK3)): 15 µM
duration of full protection (MES-induced seizures; 10 mg/kg i.p. as solution): 2.5 h
duration of significant seizure protection (MES-induced seizures; 5 and 6 mg/kg i.p. as solution): at least 90 min
duration of protective activity (MES-induced seizures; MES test, 10 mg/kg i.p. as solution): up to 4 h
ED50 (MES-induced seizures; Mus musculus, ip, 10 min, i.p. as solution, 10 min time point, read-out: ED50, seizure protection in the MES test): 4.93 mg/kg
onset of protection from seizures after application (MES-induced seizures; i.p. as solution): ≤ 5 min
protective index PI (TD50/ED50) (MES-induced seizures; i.p. as solution, 10 min time point): 3.2
block of Nav1.7 (Nav1.7): low micromolar range
EC50 (KCa2.1; 250 nM free intracellular Ca2+, read-out: EC50 or IC50, KCa2.1): > 100 µM
effect on KCa2.1 currents (KCa2.1; 100 and 200 μM): very weak effects
rats protected ([1]; 6 mg/kg): 2 out of 8
rats protected ([1]; 50 mg/kg): 3 out of 7

From US9675591B2, “Methods for treating seizure disorders and pain” (THE REGENTS OF THE UNIVERSITY OF CALIFORNIA, priority 2013, dated 2017)
